Assay results published in PubChem BioAssay (NCI).
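All cell lines were grown in 96-well plates and treated with compound for 48 hours. Abbreviation: GI50, concentration required for 50% inhibition of growth. TGI marks complete inhibition of growth.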

How the values were obtained:
Assay in all cases: NCI anticancer screen, dose series, 48 h
K-562 leukemia = test system: K-562 leukemia
SF-268 CNS = test system: SF-268 CNS
HL-60(TB) leukemia = test system: HL-60(TB) leukemia
NCI-H23 lung = test system: NCI-H23 lung
SK-MEL-5 melanoma = test system: SK-MEL-5 melanoma
EKVX NSCLC = test system: EKVX NSCLC
T-47D breast = test system: T-47D breast
NCI-H522 lung = test system: NCI-H522 lung
NCI-H226 lung = test system: NCI-H226 lung
OVCAR-5 ovarian = test system: OVCAR-5 ovarian
NCI-H460 lung = test system: NCI-H460 lung
786-0 renal = test system: 786-0 renal
BT-549 breast = test system: BT-549 breast
UACC-62 melanoma = test system: UACC-62 melanoma
ACHN renal = test system: ACHN renal
LOX IMVI melanoma = test system: LOX IMVI melanoma
RPMI-8226 leukemia = test system: RPMI-8226 leukemia
HCT-116 colon = test system: HCT-116 colon
SN12C renal = test system: SN12C renal
COLO 205 colon = test system: COLO 205 colon
SR leukemia = test system: SR leukemia
IGROV1 ovarian = test system: IGROV1 ovarian
MOLT-4 leukemia = test system: MOLT-4 leukemia
HOP-62 NSCLC = test system: HOP-62 NSCLC
TK-10 renal = test system: TK-10 renal
SF-295 CNS = test system: SF-295 CNS
SNB-19 CNS = test system: SNB-19 CNS
SF-539 CNS = test system: SF-539 CNS
A549 NSCLC = test system: A549 NSCLC
A498 renal = test system: A498 renal
MALME-3M melanoma = test system: MALME-3M melanoma
SK-MEL-28 melanoma = test system: SK-MEL-28 melanoma
KM12 colon = test system: KM12 colon
HS 578T breast = test system: HS 578T breast
RXF 393 renal = test system: RXF 393 renal
UO-31 renal = test system: UO-31 renal
SK-OV-3 ovarian = test system: SK-OV-3 ovarian
DU-145 prostate = test system: DU-145 prostate
MDA-MB-435 = test system: MDA-MB-435
OVCAR-8 ovarian = test system: OVCAR-8 ovarian
MCF7 breast = test system: MCF7 breast
MDA-MB-231 breast = test system: MDA-MB-231 breast
CAKI-1 renal = test system: CAKI-1 renal
M14 melanoma = test system: M14 melanoma
SK-MEL-2 melanoma = test system: SK-MEL-2 melanoma
CCRF-CEM leukemia = test system: CCRF-CEM leukemia
U251 CNS = test system: U251 CNS
SNB-75 CNS = test system: SNB-75 CNS
HCT-15 colon = test system: HCT-15 colon
HCC-2998 colon = test system: HCC-2998 colon
HT29 colon = test system: HT29 colon
NCI/ADR-RES ovarian = test system: NCI/ADR-RES ovarian
UACC-257 melanoma = test system: UACC-257 melanoma
OVCAR-4 ovarian = test system: OVCAR-4 ovarian
PC-3 prostate = test system: PC-3 prostate
SW-620 colon = test system: SW-620 colon

## O=[N+]([O-])c1ccc(-c2nnc(SCc3ccc(O)c4ncccc34)o2)cc1
K-562 leukemia
  GI50: 363 nM
  TGI: > 100000 nM
SF-268 CNS
  GI50: 608 nM
  TGI: > 100000 nM
HL-60(TB) leukemia
  GI50: 425 nM
NCI-H23 lung
  GI50: 407 nM
  TGI: > 100000 nM
SK-MEL-5 melanoma
  GI50: 357 nM
  TGI: > 30600 nM
EKVX NSCLC
  GI50: 746 nM
  TGI: > 100000 nM
T-47D breast
  GI50: 923 nM
  TGI: 69000 nM
NCI-H522 lung
  GI50: 381 nM
  TGI: > 100000 nM
NCI-H226 lung
  GI50: 3520 nM
  TGI: > 100000 nM
OVCAR-5 ovarian
  GI50: 3710 nM
  TGI: > 100000 nM
NCI-H460 lung
  GI50: 260 nM
  TGI: > 62700 nM
786-0 renal
  GI50: 674 nM
  TGI: > 100000 nM
BT-549 breast
  GI50: 237 nM
  TGI: > 100000 nM
UACC-62 melanoma
  GI50: 810 nM
  TGI: 12600 nM
ACHN renal
  GI50: 360 nM
  TGI: > 100000 nM
LOX IMVI melanoma
  GI50: 334 nM
  TGI: > 39000 nM
RPMI-8226 leukemia
  GI50: 402 nM
  TGI: > 100000 nM
HCT-116 colon
  GI50: 189 nM
  TGI: > 100000 nM
SN12C renal
  GI50: 326 nM
  TGI: > 100000 nM
COLO 205 colon
  GI50: 4110 nM
  TGI: > 84500 nM
SR leukemia
  GI50: 424 nM
  TGI: > 100000 nM
IGROV1 ovarian
  GI50: 649 nM
  TGI: > 100000 nM
MOLT-4 leukemia
  GI50: 508 nM
  TGI: > 100000 nM
HOP-62 NSCLC
  GI50: 590 nM
  TGI: > 100000 nM
TK-10 renal
  GI50: 785 nM
  TGI: > 100000 nM
SF-295 CNS
  GI50: 315 nM
  TGI: > 100000 nM
SNB-19 CNS
  GI50: 351 nM
  TGI: > 100000 nM
SF-539 CNS
  GI50: 877 nM
  TGI: > 100000 nM
A549 NSCLC
  GI50: 378 nM
  TGI: > 100000 nM
A498 renal
  GI50: 2520 nM
  TGI: > 30400 nM
MALME-3M melanoma
  GI50: 569 nM
  TGI: > 100000 nM
SK-MEL-28 melanoma
  GI50: 1120 nM
  TGI: > 100000 nM
KM12 colon
  GI50: 572 nM
  TGI: > 100000 nM
HS 578T breast
  GI50: 417 nM
  TGI: > 100000 nM
RXF 393 renal
  GI50: 732 nM
  TGI: > 100000 nM
UO-31 renal
  GI50: 347 nM
  TGI: > 53000 nM
SK-OV-3 ovarian
  GI50: 379 nM
  TGI: 3920 nM
DU-145 prostate
  GI50: 467 nM
  TGI: > 100000 nM
MDA-MB-435
  GI50: 331 nM
  TGI: > 100000 nM
OVCAR-8 ovarian
  GI50: 310 nM
  TGI: > 100000 nM
MCF7 breast
  GI50: 224 nM
  TGI: > 100000 nM
MDA-MB-231 breast
  GI50: 625 nM
  TGI: > 100000 nM
CAKI-1 renal
  GI50: 561 nM
  TGI: > 100000 nM
M14 melanoma
  GI50: 455 nM
  TGI: 7560 nM
SK-MEL-2 melanoma
  GI50: 390 nM
CCRF-CEM leukemia
  GI50: 451 nM
  TGI: > 100000 nM
U251 CNS
  GI50: 181 nM
  TGI: > 100000 nM
SNB-75 CNS
  GI50: 386 nM
  TGI: > 100000 nM
HCT-15 colon
  GI50: 333 nM
  TGI: > 100000 nM
HCC-2998 colon
  GI50: 749 nM
  TGI: > 100000 nM
HT29 colon
  GI50: 4840 nM
  TGI: > 100000 nM
NCI/ADR-RES ovarian
  GI50: 551 nM
  TGI: > 100000 nM
UACC-257 melanoma
  GI50: 511 nM
  TGI: 27500 nM
OVCAR-4 ovarian
  GI50: 1010 nM
  TGI: > 100000 nM
PC-3 prostate
  GI50: 358 nM
  TGI: > 100000 nM
SW-620 colon
  GI50: 547 nM
  TGI: > 100000 nM
